The NIST ThermoML archive (doi:10.1021/je900974u)

Experiments:
[1] = molar heat capacity at constant pressure; conditions: 101.33 kPa, Liquid, Vacuum adiabatic calorimetry
[2] = Crystal
[3] = Molar enthalpy of transition or fusion; conditions: Crystal; Adiabatic calorimetry

CCCCn1cc[n+](C)c1.F[B-](F)(F)F [1-butyl-3-methylimidazolium tetrafluoroborate]
[1]
Conditions | molar heat capacity at constant pressure [J/K/mol]
189.66 K | 332
191.85 K | 332.1
194.05 K | 332.1
196.25 K | 332.7
198.46 K | 332.8
200.67 K | 333.2
202.89 K | 333.7
205.12 K | 334
207.35 K | 334.5
209.58 K | 335
211.82 K | 335.5
214.06 K | 335.9
216.3 K | 336.8
218.55 K | 337.2
220.8 K | 337.8
223.05 K | 338.8
225.31 K | 339.2
227.56 K | 339.9
229.82 K | 340.4
232.09 K | 340.9
236.62 K | 342.8
238.89 K | 343.3
241.18 K | 344.4
243.46 K | 345.4
245.73 K | 345.8
248.01 K | 346.6
250.29 K | 347.5
252.57 K | 348.5
254.85 K | 349
257.13 K | 350.2
259.41 K | 351
261.7 K | 351.4
263.98 K | 352.6
266.27 K | 353.5
268.56 K | 354.6
270.84 K | 355.7
273.13 K | 356.4
275.42 K | 357.4
277.72 K | 358.3
280.02 K | 359.2
282.31 K | 360.2
284.6 K | 361.6
286.89 K | 362.1
289.17 K | 363.3
291.46 K | 364.2
293.74 K | 365.4
296.02 K | 366.3
298.3 K | 367
300.57 K | 368.2
302.84 K | 368.7
305.11 K | 370
307.38 K | 371.1
309.64 K | 372.6
311.9 K | 373.5
314.16 K | 374.2
316.43 K | 375.5
318.69 K | 376.9
320.95 K | 377.9
323.2 K | 378.9
325.45 K | 379.6
327.7 K | 381.1
329.95 K | 381.9
332.2 K | 382.6
334.45 K | 384.1
336.69 K | 384.9
338.94 K | 386
341.18 K | 387.3
343.42 K | 388.6
345.66 K | 389.8
347.9 K | 390.7
350.14 K | 391.8
352.38 K | 392.4
354.62 K | 393.9
356.85 K | 394.2
359.08 K | 395.7
361.31 K | 396.6
363.54 K | 397.9
365.76 K | 399
367.98 K | 400.1

CCCCn1cc[n+](C)c1.O=S(=O)([O-])C(F)(F)F [1-butyl-3-methylimidazolium trifluoromethanesulfonate]
Conditions | Molar enthalpy of transition or fusion [kcal/mol] | Triple point temperature [K]
[2] | – | 290.98
[3] | 4.637 | –

[1]
Conditions | molar heat capacity at constant pressure [J/K/mol]
292.86 K | 425
294.76 K | 425.9
296.65 K | 427
298.54 K | 427.9
300.43 K | 429.1
302.38 K | 429.6
304.36 K | 431.1
306.35 K | 431.9
308.34 K | 433.1
310.33 K | 434
312.32 K | 435.1
314.31 K | 436.3
316.3 K | 437.1
318.29 K | 438.3
320.27 K | 439.1
322.26 K | 440.6
324.25 K | 441.4
326.24 K | 442.6
328.22 K | 443.8
330.2 K | 444.6
332.19 K | 445.8
334.17 K | 446.9
336.15 K | 447.8
338.13 K | 448.9
340.11 K | 449.8
342.09 K | 451
344.07 K | 452.1
346.05 K | 453.3
348.03 K | 454.3
350 K | 455.5
351.98 K | 456.3
353.96 K | 457.8
355.94 K | 458.6
357.92 K | 459.5
359.89 K | 460.7
361.87 K | 462.1
363.84 K | 463
365.81 K | 464.1
367.78 K | 465
